Measured values published in US9820943B2, “Micronized amoxicillin” (DSM SINOCHEM PHARMACEUTICALS NETHERLANDS B.V., priority 2013, dated 2017).
One block for each molecule: values may come before it.

Experiments:
Format in all cases: physicochemical
[1] = Specific powder surface area by nitrogen gas sorption (BET); conditions: triplicate, trihydrate
Description: Specific powder surface area was determined using nitrogen gas sorption (Smartsorb, Smart Instruments, Mumbai, India). Prior to measurements, samples were regenerated by degassing to remove moisture and contamination. The regenerated sample was dipped in liquid nitrogen and the quantity of the adsorbed gas was measured using a thermal conductivity detector and subsequently integrated using an electronic circuit in terms of counts. The instrument was calibrated by injecting a known quantity of nitrogen. The measured parameters were subsequently used to calculate the surface area of the sample by employing the adsorption theories of Brunauer, Emmett and Teller (BET).
(§1) Parameters operated were: • Augar Speed: 5-90 rpm • Primary Air Pressure: 2-8 kg·cm^−2 • Secondary Air Pressure: 4-10 kg·cm^−2 The surface area (in triplicate), average particle size and contact angle (in quadruplicate) were determined as outlined in the General section. The purity of the amoxicillin trihydrate samples was 99.4±0.3% and were void of dichloromethane, isopropanol, pivalic acid and triethyl amine.

[2] = Contact angle by sessile drop method (water); conditions: ambient conditions, trihydrate
Description: Contact angles of amoxicillin trihydrate powder samples were measured by the sessile drop method using an Drop Shape Analyzer instrument (FTA 1000, First Ten Angstrom, Virginia, USA). Powder samples were mounted on double sided adhesive tape adhered to a glass slide and excess powder was removed by tapping the slide. A drop of probe liquid (water) was dispersed onto the sample surface and video images were captured by the FTA image analyzer. The contact angle was calculated by the instrument by fitting a mathematical expression to the shape of the drop followed by calculating the slope of the tangent to the drop at the liquid-solid-vapor interface line. The surface tension of ultrapure ELGA laboratory water was measured to be 73±0.5 mN·m^−1 at 25° C. All measurements were performed in air under ambient conditions and an average of four measurements was reported in the below Examples.
as §1

[3] = Powder dissolution, USP/NF paddle method with HPLC analysis; conditions: 500 mg in 900 mL water, 37 °C, 75 rpm; for Amoxicillin released in solution Mean: mean of 3; for Amoxicillin released in solution #1: replicate #1; for Amoxicillin released in solution #2: replicate #2; for Amoxicillin released in solution #3: replicate #3
Description: Dissolution analysis of amoxicillin trihydrate powder samples was carried out using the USP/NF paddle method at a rotational speed of 75 rpm. Ultrapure ELGA laboratory water (900 mL) was used as dissolution medium. Media were equilibrated to 37.0±0.5° C. prior to dissolution. Amoxicillin trihydrate sample powder (500 mg) was directly added to the dissolution apparatus (Electrolab USP-24, India). Samples were collected at 0, 1, 3, 5, 10, 15, 30, 60 and 90 min, filtered through 0.2 μm filters and analyzed by HPLC. Dissolution profiles were constructed by plotting the percentage amoxicillin released against time.
The HPLC system (Shimadzu Corporation, Kyoto, Japan) comprised of an SCL-10A VP system controller, LC-10AT VP liquid chromatograph, FCV-10AL VP flow control valve, DGU-14A degasser, SIL-10AD VP auto-injector, CTO-10AS VP column oven, SPD-M20A prominence diode array (PDA) detector and data acquisition Class-VP 6.10 software. The HPLC method was adopted from the United States Pharmacopoeia (USP). The method was validated for linearity, precision, accuracy and intra- and inter-day variability. The mobile phase was 50 mM monobasic potassium phosphate:methanol (96:4, v/v, pH 5.0). All analyses were carried out using Lichrospher® 100 RP-18e analytical column (5 μm, Merck KGaA, Darmstadt, Germany) under isocratic conditions at a flow rate of 1.0 mL·min^−1 at 25° C. with 20 μL injection volume. Effluent was monitored at a wavelength of 230 nm. Samples for calibration curve generation were prepared in 50 mM monobasic potassium phosphate:methanol 1:1 (v/v) proportion at a concentration range of 1 to 600 μg·mL^−1.
The three non-micronized (i.e. entries 1-3 of Table 1) and micronized (i.e. entries 4-6 of Table 1) amoxicillin trihydrate samples of Example 1 were subjected to a powder dissolution test (in triplicate) as outlined in the General section.

[4] = Particle size distribution by laser diffraction (Malvern); conditions: trihydrate
Description: Particle size distribution values D10, D50, D90 and D100 were determined using laser diffraction applying Malvern equipment. A suitable apparatus for determining D10, D50, D90 and D100 is a Malvern particle sizer 2600 C or a Malvern Zeta Sizer.
as §1

Surface Area Mean ± SD (n = 3) [1]: 2.03 ± 0.15 m^2 · g^−1 | Contact Angle Mean ± SD (n = 4) [2]: 97.89 ± 1.22 | Amoxicillin released in solution Mean ([3]; 0 min): 0% | Amoxicillin released in solution #1 ([3]; 0 min): 0% | Amoxicillin released in solution #2 ([3]; 0 min): 0% | Amoxicillin released in solution #3 ([3]; 0 min): 0% | Amoxicillin released in solution Mean ([3]; 1 min, trihydrate): 59.93% | Amoxicillin released in solution #1 ([3]; 1 min, trihydrate): 58.56% | Amoxicillin released in solution #2 ([3]; 1 min, trihydrate): 62.91% | Amoxicillin released in solution #3 ([3]; 1 min, trihydrate): 58.32% | Amoxicillin released in solution Mean ([3]; 3 min, trihydrate): 77.98% | Amoxicillin released in solution #1 ([3]; 3 min, trihydrate): 78.61% | Amoxicillin released in solution #2 ([3]; 3 min, trihydrate): 80.12% | Amoxicillin released in solution #3 ([3]; 3 min, trihydrate): 75.20% | Amoxicillin released in solution Mean ([3]; 5 min, trihydrate): 82.14% | Amoxicillin released in solution #1 ([3]; 5 min, trihydrate): 83.91% | Amoxicillin released in solution #2 ([3]; 5 min, trihydrate): 82.77% | Amoxicillin released in solution #3 ([3]; 5 min, trihydrate): 79.73% | Amoxicillin released in solution Mean ([3]; 10 min, trihydrate): 86.84% | Amoxicillin released in solution #1 ([3]; 10 min, trihydrate): 89.18% | Amoxicillin released in solution #2 ([3]; 10 min, trihydrate): 88.59% | Amoxicillin released in solution #3 ([3]; 10 min, trihydrate): 82.76% | Amoxicillin released in solution Mean ([3]; 15 min, trihydrate): 89.32% | Amoxicillin released in solution #1 ([3]; 15 min, trihydrate): 90.98% | Amoxicillin released in solution #2 ([3]; 15 min, trihydrate): 92.05% | Amoxicillin released in solution #3 ([3]; 15 min, trihydrate): 84.94% | Amoxicillin released in solution Mean ([3]; 30 min, trihydrate): 96.72% | Amoxicillin released in solution #1 ([3]; 30 min, trihydrate): 94.78% | Amoxicillin released in solution #2 ([3]; 30 min, trihydrate): 99.20% | Amoxicillin released in solution #3 ([3]; 30 min, trihydrate): 96.17% | Amoxicillin released in solution Mean ([3]; 60 min, trihydrate): 97.60% | Amoxicillin released in solution #1 ([3]; 60 min, trihydrate): 97.29% | Amoxicillin released in solution #2 ([3]; 60 min, trihydrate): 99.86% | Amoxicillin released in solution #3 ([3]; 60 min, trihydrate): 95.65% | Amoxicillin released in solution Mean ([3]; 90 min, trihydrate): 99.15% | Amoxicillin released in solution #1 ([3]; 90 min, trihydrate): 99.33% | Amoxicillin released in solution #2 ([3]; 90 min, trihydrate): 99.64% | Amoxicillin released in solution #3 ([3]; 90 min, trihydrate): 98.47% | Average Particle Size D10 [4]: 1.9 μm | Average Particle Size D50 [4]: 10.0 μm | Average Particle Size D90 [4]: 22.5 μm | Average Particle Size D100 [4]: 44.3 μm
Structure (SMILES): CC1(C)S[C@@H]2[C@H](NC(=O)[C@H](N)c3ccc(O)cc3)C(=O)N2[C@H]1C(=O)O.O.O.O [entry 5, amoxicillin trihydrate]

Surface Area Mean ± SD (n = 3) [1]: 1.69 ± 0.07 m^2 · g^−1 | Contact Angle Mean ± SD (n = 4) [2]: 107.84 ± 1.72 | Amoxicillin released in solution Mean ([3]; 0 min): 0% | Amoxicillin released in solution #1 ([3]; 0 min): 0% | Amoxicillin released in solution #2 ([3]; 0 min): 0% | Amoxicillin released in solution #3 ([3]; 0 min): 0% | Amoxicillin released in solution Mean ([3]; 1 min, trihydrate): 70.68% | Amoxicillin released in solution #1 ([3]; 1 min, trihydrate): 70.98% | Amoxicillin released in solution #2 ([3]; 1 min, trihydrate): 72.37% | Amoxicillin released in solution #3 ([3]; 1 min, trihydrate): 68.67% | Amoxicillin released in solution Mean ([3]; 3 min, trihydrate): 79.56% | Amoxicillin released in solution #1 ([3]; 3 min, trihydrate): 82.73% | Amoxicillin released in solution #2 ([3]; 3 min, trihydrate): 76.25% | Amoxicillin released in solution #3 ([3]; 3 min, trihydrate): 79.68% | Amoxicillin released in solution Mean ([3]; 5 min, trihydrate): 82.60% | Amoxicillin released in solution #1 ([3]; 5 min, trihydrate): 84.40% | Amoxicillin released in solution #2 ([3]; 5 min, trihydrate): 78.46% | Amoxicillin released in solution #3 ([3]; 5 min, trihydrate): 84.94% | Amoxicillin released in solution Mean ([3]; 10 min, trihydrate): 85.67% | Amoxicillin released in solution #1 ([3]; 10 min, trihydrate): 85.63% | Amoxicillin released in solution #2 ([3]; 10 min, trihydrate): 82.85% | Amoxicillin released in solution #3 ([3]; 10 min, trihydrate): 88.53% | Amoxicillin released in solution Mean ([3]; 15 min, trihydrate): 88.11% | Amoxicillin released in solution #1 ([3]; 15 min, trihydrate): 87.94% | Amoxicillin released in solution #2 ([3]; 15 min, trihydrate): 85.45% | Amoxicillin released in solution #3 ([3]; 15 min, trihydrate): 90.95% | Amoxicillin released in solution Mean ([3]; 30 min, trihydrate): 96.85% | Amoxicillin released in solution #1 ([3]; 30 min, trihydrate): 96.08% | Amoxicillin released in solution #2 ([3]; 30 min, trihydrate): 96.66% | Amoxicillin released in solution #3 ([3]; 30 min, trihydrate): 97.81% | Amoxicillin released in solution Mean ([3]; 60 min, trihydrate): 99.37% | Amoxicillin released in solution #1 ([3]; 60 min, trihydrate): 99.56% | Amoxicillin released in solution #2 ([3]; 60 min, trihydrate): 98.85% | Amoxicillin released in solution #3 ([3]; 60 min, trihydrate): 99.69% | Amoxicillin released in solution Mean ([3]; 90 min, trihydrate): 98.76% | Amoxicillin released in solution #1 ([3]; 90 min, trihydrate): 97.01% | Amoxicillin released in solution #2 ([3]; 90 min, trihydrate): 99.48% | Amoxicillin released in solution #3 ([3]; 90 min, trihydrate): 99.78% | Average Particle Size D10 [4]: 1.9 μm | Average Particle Size D50 [4]: 10.0 μm | Average Particle Size D90 [4]: 22.4 μm | Average Particle Size D100 [4]: 38.9 μm
Structure (SMILES): CC1(C)S[C@@H]2[C@H](NC(=O)[C@H](N)c3ccc(O)cc3)C(=O)N2[C@H]1C(=O)O.O.O.O [entry 6, amoxicillin trihydrate]
